The record followed here is patent publication US20110034496A1, “POST-HARVEST TREATMENT” (Bayer CropScience AG, priority 2007, published 2011).

SMILES strings stand for the structures.

For experiment [1], the system named is Botrytis cinerea. Description: Apples dipped in fungicidal solution, then inoculated with Botrytis cinerea spores at cuticle injuries. Type of experiment: in vivo. The conditions noted are these: dip 100 g a.i./1000 ltr. Here is the method:
(§1) In Example 1 and Example 2 all compounds except fluopyram were applied as commercially available. 1 weight proportion of fluopyram, however, was mixed with solvents (24.5 w/w acetone, 24.5 w/w dimethylacetamid) and emulsifier (1 w/w), respectively. Afterwards, the product was diluted in water. The concentration used is indicated below. Apples were dipped in a fungicidal solution and kept in plastic boxes for drying. Afterwards 10 μl of a spore solution of Botrytis cinerea has been applied to injuries of the cuticle of the fruits. The trial has been assessed at 6d and 10d after inoculation. The efficacy of the products has been calculated based on the fungal growth of the treated apples with reference to the inoculated untreated control. The efficacy is shown as % Abbott.

Experiment [2] relates to Penicillium expansum. Nature of the experiment: Apples dipped in fungicidal solution, then inoculated with Penicillium expansum spores at cuticle injuries. To be noted: for % Efficacy [Abbott] at 6 d: 6 d after inoculation; for % Efficacy [Abbott] at 10 d: 10 d after inoculation; for % Efficacy [Abbott] at 15 d: 15 d after inoculation. Type of experiment: in vivo. Here is the method: as §1, with “Penicillium expansum” for “Botrytis cinerea”, “different time intervals” for “6d and 10d”

[3] abbreviates: dip 100 g a.i./1000 ltr., Table 1b.
The mark [4] stands for this setting: dip 100 g a.i./1000 ltr., Table 1a.
Where [5] appears, read: dip 750 g a.i./1000 ltr., Table 1b.
Setting [6] is: dip 50 g a.i./1000 ltr., Table 1b.

As to `O=C(NCCc1ncc(C(F)(F)F)cc1Cl)c1ccccc1C(F)(F)F` [Fluopyram, N-{2-[3-chloro-5-(trifluoromethyl)pyridin-2-yl]ethyl}-2-(trifluoromethyl)-benzamide], the “% Efficacy [Abbott] at 6 d” value in experiment [1] (6 d after inoculation) is reported as 98%. Besides, in experiment [1] (10 d after inoculation), the “% Efficacy [Abbott] at 10 d” value worked out at 96%. For the same compound, in experiment [2] (setting [3]), the “% Efficacy [Abbott] at 6 d” value worked out at 93%, the “% Efficacy [Abbott] at 10 d” value was 90% and the “% Efficacy [Abbott] at 15 d” value is given as 70%.

As to `CC(C)(C)C(O)(CCc1ccc(Cl)cc1)Cn1cncn1` (centres unmarked) [Tebuconazole, tebuconazole], in experiment [2] (setting [4]), the “% Efficacy [Abbott] at 6 d” value turned out to be 100% and the “% Efficacy [Abbott] at 10 d” value was determined as 100%. Also, the “% Efficacy [Abbott] at 14 d” value in experiment [2] (dip 100 g a.i./1000 ltr., 14 d after inoculation, Table 1a) was 100%.

With `Cc1ccc(N(SC(F)(Cl)Cl)S(=O)(=O)N(C)C)cc1` [Tolylfluanid, tolylfluanid], in experiment [2] (setting [5]), the “% Efficacy [Abbott] at 6 d” value amounted to 64%, the “% Efficacy [Abbott] at 10 d” value is given as 60% and the “% Efficacy [Abbott] at 15 d” value worked out at 60%.

Consider `CON=C(C(=O)OC)c1ccccc1CON=C(C)c1cccc(C(F)(F)F)c1` [Trifloxystrobin, trifloxystrobin], for which, in experiment [2] (setting [6]), the “% Efficacy [Abbott] at 6 d” value is 50%, the “% Efficacy [Abbott] at 10 d” value was found to be 63% and the “% Efficacy [Abbott] at 15 d” value came out at 52%.
